Legend:
[1] = Test B: Cytotoxicity Assay (uninfected MT-4 cells); type: cell-based; conditions: human, same protocol as Test A, read-out: MT4-CC50
Protocol: (§1) For the antiviral assay, 40 μL of 1× test concentration of 3-fold serially diluted compound in culture medium with 10% FBS was added to each well of a 384-well plate (10 concentrations) in quadruplicate. MT-4 cells were next mixed with HIV-IIIb at an m.o.i of 0.003 for 1 hour, after which time 35 μL of virus/cell mixture (2000 cells) was immediately added to each well containing 40 μL of diluted compound. The plates were then incubated at 37° C. for 5 days. After 5 days of incubation, 25 μl of 2× concentrated CellTiter-Glo™ Reagent (catalog #G7571, Promega Biosciences, Inc., Madison, Wis.) was added to each well containing MT-4 cells. Cell lysis was carried out by incubating at room temperature for 10 min and then chemiluminescence was read. […] Test B: Cytotoxicity Assay Compound cytotoxicity and the corresponding CC50 values were determined using the same protocol as described in the antiviral assay (Test A) except that uninfected cells were used.

HIV-IIIb = experiment: Test A: Antiviral Assay in MT4 Cells; type: cell-based, HIV-1; conditions: Human immunodeficiency virus 1, MT4, 120 h, read-out: % Inh @ 2 uM (percent inhibition of virus-induced cell killing); 2 uM test compound; MT-4 cells infected with HIV-IIIb, 5 days, CellTiter-Glo
Protocol: as §1, with “Test A: Antiviral Assay in MT4 Cells For” for “For”, “Accordingly,” for “Test B: Cytotoxicity Assay Compound cytotoxicity and”, “compounds disclosed herein may be useful for treating an HIV virus infection, treating AIDS or for delaying” for “corresponding CC50 values were determined using”, “onset of AIDS or ARC symptoms.” for “same protocol as described in the antiviral assay (Test A) except that uninfected cells were used.”

[2] = from C=CCc1cccc(C[C@H](NC(=O)Cc2c(Br)n(C(=O)OC(C)(C)C)c3ccc(OC)nc23)C(=O)OC)c1; cc_pd bond; Pd(OAc)2; DMF; 2.46 mM; 120.0 °C; 5.0 h

| SMILES | CC50 at 5 days [1] | inhibition at 2 µM (HIV-IIIb) | ring closure, yield of all isomers [2] |
| --- | --- | --- | --- |
| COc1ccc(N(C)C(=O)[C@@H]2Cc3cccc(c3)CCS(=O)(=O)Cc3[nH]c4ccc(F)cc4c3CC(=O)N2)cc1 [Example 10] | > 53 µM | 1.8% |  |
| COc1ccc(N(C)C(=O)[C@@H]2Cc3cccc(c3)CCSCc3[nH]c4ccc(O)cc4c3CC(=O)N2)cc1 [Example 6] | 49.2 µM | 94.3% |  |
| COc1ccc(N(C)C(=O)[C@@H]2Cc3cc(F)cc(c3)C/C=C/c3[nH]c4ccccc4c3CC(=O)N2)cc1 [Example 27, (4S,12E)-8-fluoro-N-(4-methoxyphenyl)-N-methyl-2-oxo-2,3,4,5,11,14-hexahydro-1H-6,10-(metheno)azacyclopentadecino[5,4-b]indole-4-carboxamide] | 18.9 µM | 92.5% |  |
| COc1ccc(N(C)C(=O)[C@@H]2Cc3cccc(c3)S(=O)(=O)Cc3[nH]c4ccccc4c3CC(=O)N2)cc1 [Example 19, (9S)—N-(4-methoxyphenyl)-N-methyl-11-oxo-8,9,10,11,12,17-hexahydro-1H-7,3-(metheno)[1,7]thiazacyclotetradecino[3,4-b]indole-9-carboxamide 2,2-dioxide] | > 53 µM | 80.3% |  |
| CN(C(=O)[C@@H]1Cc2cccc(c2)CCCc2[nH]c3ccc(=O)[nH]c3c2CC(=O)N1)c1ccc(Cl)cc1 [Example 30, (15S)—N-(4-chlorophenyl)-N-methyl-2,17-dioxo-1,5,6,7,8,14,15,16,17,18-decahydro-2H-13,9-(metheno)pyrido[2′,3′:4,5]pyrrolo[3,2-d]azacyclopentadecine-15-carboxamide] | 24.4 µM | 0% |  |
| COc1ccc(N(C)C(=O)[C@@H]2Cc3cccc(c3)CCCCc3[nH]c4ccccc4c3CC(=O)N2)cc1 [Example 4] | > 48.7 µM | 79.6% |  |
| COC(=O)[C@@H]1Cc2cccc(c2)C/C=C/c2[nH]c3ccc(OC)nc3c2CC(=O)N1 |  |  | 33.3% |
| COc1ccc(N(C)C(=O)[C@@H]2Cc3cccc(c3)CCCc3[nH]c4ccc(O)cc4c3CC(=O)N2)cc1 [Example 2] | > 46.4 µM | 102% |  |
| COc1ccc(N(C)C(=O)[C@@H]2Cc3cccc(c3)CC=Cc3[nH]c4ccccc4c3CC(=O)N2)cc1 (stereo in doubt) [Example 11, (4S,12Z)—N-(4-methoxyphenyl)-N-methyl-2-oxo-2,3,4,5,11,14-hexahydro-1H-6,10-(metheno)azacyclopentadecino[5,4-b]indole-4-carboxamide] | 23.9 µM | 102% |  |
| COc1ccc(N(C)C(=O)[C@@H]2Cc3cccc(c3)C/C=C\c3[nH]c4ccccc4c3CC(=O)N2)cc1 [Example 13] | > 53 µM | 99% |  |
| CN(C(=O)[C@@H]1Cc2cc(F)cc(c2)CCCc2[nH]c3ccccc3c2CC(=O)N1)c1ccc(Cl)cc1 [Example 24, (4S)—N-(4-chlorophenyl)-8-fluoro-N-methyl-2-oxo-2,3,4,5,11,12,13,14-octahydro-1H-6,10-(metheno)azacyclopentadecino[5,4-b]indole-4-carboxamide] | 47.1 µM | 100% |  |
| COc1ccc(N(C)C(=O)[C@@H]2Cc3cccc(c3)CCc3[nH]c4ccccc4c3CC(=O)N2)cc1 [Example 3] | > 53 µM | 99.2% |  |
| COc1ccc2[nH]c3c(c2n1)CC(=O)N[C@H](C(=O)N(C)c1ccc(Cl)cc1)Cc1cccc(c1)CC3 [Example 28, (14S)—N-(4-chlorophenyl)-2-methoxy-N-methyl-16-oxo-5,6,7,13,14,15,16,17-octahydro-12,8-(metheno)pyrido[2′,3′:4,5]pyrrolo[3,2-d]azacyclotetradecine-14-carboxamide] | 18.3 µM | 63.9% |  |
| CN(Cc1ccccc1)C(=O)[C@@H]1Cc2cc(F)cc(c2)CCCc2[nH]c3ccccc3c2CC(=O)N1 [Example 25, (4S)—N-benzyl-8-fluoro-N-methyl-2-oxo-2,3,4,5,11,12,13,14-octahydro-1H-6,10-(metheno)azacyclopentadecino[5,4-b]indole-4-carboxamide] | 52.3 µM | 84.9% |  |
| COc1ccc(N(C)C(=O)[C@@H]2Cc3cc(F)cc(c3)/C=C\Cc3[nH]c4ccccc4c3CC(=O)N2)cc1 [Example 26, (4S,11Z)-8-fluoro-N-(4-methoxyphenyl)-N-methyl-2-oxo-2,3,4,5,13,14-hexahydro-1H-6,10-(metheno)azacyclopentadecino[5,4-b]indole-4-carboxamide] | 34.8 µM | 79.9% |  |
| COc1ccc(N(C)C(=O)[C@@H]2Cc3cccc(c3)CS(=O)(=O)c3[nH]c4ccccc4c3CC(=O)N2)cc1 [Example 21, (9S)—N-(4-methoxyphenyl)-N-methyl-11-oxo-8,9,10,11,12,17-hexahydro-7,3-(metheno)[1,6]thiazacyclotetradecino[2,3-b]indole-9(2H)-carboxamide 1,1-dioxide] | > 53 µM | 11.8% |  |
| CN(C(=O)[C@@H]1Cc2cccc(c2)CCc2[nH]c3ccc(=O)[nH]c3c2CC(=O)N1)c1ccc(Cl)cc1 [Example 29, (14S)—N-(4-chlorophenyl)-N-methyl-2,16-dioxo-1,2,5,6,7,13,14,15,16,17-decahydro-12,8-(metheno)pyrido[2′,3′:4,5]pyrrolo[3,2-d]azacyclotetradecine-14-carboxamide] | > 53 µM | 87.6% |  |
| COc1ccc(N(C)C(=O)[C@@H]2Cc3cccc(c3)CCSCc3[nH]c4ccc(F)cc4c3CC(=O)N2)cc1 [Example 7] | > 53 µM | 26.3% |  |
| COc1ccc(N(C)C(=O)[C@@H]2Cc3cccc(c3)C/C=C\c3[nH]c4ccc(F)cc4c3CC(=O)N2)cc1 [Example 14] | 44.3 µM | 95.6% |  |
| COc1ccc(N(C)C(=O)[C@@H]2Cc3cc(F)cc(c3)CCCc3[nH]c4ccccc4c3CC(=O)N2)cc1 [Example 23K, (4S)-8-fluoro-N-(4-methoxyphenyl)-N-methyl-2-oxo-2,3,4,5,11,12,13,14-octahydro-1H-6,10-(metheno)azacyclopentadecino[5,4-b]indole-4-carboxamide] | > 50.3 µM | 94% |  |
| COc1ccc(N(C)C(=O)[C@@H]2Cc3cccc(c3)/C=C/Cc3[nH]c4ccccc4c3CC(=O)N2)cc1 [Example 22, (4S,11E)-N-(4-methoxyphenyl)-N-methyl-2-oxo-2,3,4,5,13,14-hexahydro-1H-6,10-(metheno)azacyclopentadecino[5,4-b]indole-4-carboxamide] | > 52.6 µM | 64.5% |  |
| COc1ccc(N(C)C(=O)[C@@H]2Cc3cccc(c3)CCS(=O)(=O)Cc3[nH]c4ccccc4c3CC(=O)N2)cc1 [Example 8, (11S)—N-(4-methoxyphenyl)-N-methyl-13-oxo-3,4,10,11,12,13,14,19-octahydro-1H-9,5-(metheno)[1,7]thiazacyclohexadecino[3,4-b]indole-11-carboxamide 2,2-dioxide] | > 53 µM | 0.6% |  |
| COc1ccc(N(C)C(=O)[C@@H]2Cc3cccc(c3)C/C=C/c3[nH]c4ccc(F)cc4c3CC(=O)N2)cc1 [Example 12] | 31.8 µM | 85.5% |  |
| CN(C(=O)N1Cc2cc(F)cc(c2)CCCc2[nH]c3ccccc3c2CC(=O)N1)c1ccc(Cl)cc1 [Example 31, N-(4-chlorophenyl)-8-fluoro-N-methyl-2-oxo-2,3,11,12,13,14-hexahydro-1H-6,10-(metheno)[1,2]diazacyclopentadecino[6,5-b]indole-4(5H)-carboxamide] | 21.7 µM | 2.4% |  |
| COc1ccc(N(C)C(=O)[C@@H]2Cc3cccc(c3)CCS(=O)(=O)Cc3[nH]c4ccc(O)cc4c3CC(=O)N2)cc1 [Example 9] | > 53 µM | 0.7% |  |
| COc1ccc(N(C)C(=O)[C@@H]2Cc3cccc(c3)/C=C\c3[nH]c4ccccc4c3CC(=O)N2)cc1 [Example 17, (4S,11Z)—N-(4-methoxyphenyl)-N-methyl-2-oxo-1,2,3,4,5,13-hexahydro-6,10-(metheno)azacyclotetradecino[5,4-b]indole-4-carboxamide] | > 53 µM | 4.7% |  |
| COc1ccc(N(C)C(=O)[C@@H]2Cc3cccc(c3)CS(=O)(=O)Cc3[nH]c4ccccc4c3CC(=O)N2)cc1 [Example 16, (10S)—N-(4-methoxyphenyl)-N-methyl-12-oxo-9,10,11,12,13,18-hexahydro-1H-8,4-(metheno)[1,7]thiazacyclopentadecino[3,4-b]indole-10(3H)-carboxamide 2,2-dioxide] | > 53 µM | 67.8% |  |
